The record followed here is patent US11480559B2, “Blood collection tube, reagent, and method for analyzing blood characteristics using same” (FUJIMORI KOGYO CO., LTD., priority 2016, dated 2022).

What all share (format): cell-based
Test [1] relates to blood coagulation. Kind of test: ROTEM measurement of blood collected in BD sodium citrate tube with added reagents. To be noted: for blood coagulation (ROTEM): CTI 50 μg/mL, aprotinin 20 μg/mL. How it is done:
(§1) To a blood sample collected in a sodium citrate blood collection tube manufactured by BD (containing 3.2% sodium citrate in an amount of 1/10 volume with respect to the blood), the following reagents were added to perform ROTEM measurement.
(2) Calcium chloride (final concentration, 12 mM) and CTI (final concentration, 50 μg/mL)
(3) Calcium chloride (final concentration, 12 mM), CTI (final concentration, 50 μg/mL), and aprotinin (final concentration, 20 μg/mL)
(4) Calcium chloride (final concentration, 12 mM), CTI (final concentration, 50 μg/mL), aprotinin (final concentration, 20 μg/mL), and danaparoid sodium (final concentration, 0.25 U/mL)
The results for (1), (2), (3), and (4) are shown from the left in this order (in the order of initiation of coagulation).
(1) STARTEM reagent (calcium chloride reagent)
(4) Calcium chloride (final concentration, 12 mM), CTI (final concentration, 50 μg/mL), aprotinin (final concentration, 20 μg/mL), and heparin sodium (Mochida Pharmaceutical Co., Ltd.; final concentration, 0.15 U/mL)

The subject of test [2] is mixed white thrombus formation. Kind of test: Thrombogenic capacity (white thrombus formation) in microchip coated with collagen and tissue factor, device of FIG. 2. To be noted: tube A; aprotinin 10 μg/mL added before blood collection; calcium chloride 12 mM and CTI 50 μg/mL; flow rate 10 μL/min. On the procedure:
A method for analyzing the mixed white thrombus formation capacity using a microchip B for analysis of a mixed white thrombus is described below with reference to FIG. 2. The example illustrated in FIG. 2 is a mode in which a blood coagulation inhibitor is added to blood that has passed through a channel. However, this is merely an example, and the microchip may be, of course, in a different mode.
A reservoir (blood storage container) 206 is connected in an inverted position to an inlet 204 of the microchip B, and a liquid transfer pump 207 is connected to the reservoir 206. To the liquid transfer pump 207, a pressure sensor 208 is connected.
As the liquid for a liquid transfer pump 207, a liquid having a specific gravity lower than that of blood, such as mineral oil or […] is used. This liquid is introduced using the liquid transfer pump 207 into a reservoir 206 in which blood is preliminarily filled, thereby overlaying the liquid on the blood. […] By measuring the inflow pressure of the liquid, the inflow pressure of the blood into the channel can be indirectly measured.
More specifically, mineral oil is injected from the liquid transfer pump 207 into the reservoir 206. […] By providing the narrow section, high-shear-stress-induced platelet aggregation can be monitored, and thrombus formation in atherothrombosis can be reproduced, which is preferred. […]

Test [3] deals with platelet thrombus formation. Briefly: Flow measurement of platelet thrombus formation in collagen-coated microchip, device of FIG. 1. To be noted: blood collected in BD heparin blood collection tube, directly measured; 18 μL/min. The text has this:
First, a method for analyzing the platelet thrombus formation capacity using a microchip A for analysis of a platelet thrombus is described below with reference to FIG. 1. In the example illustrated in FIG. 1, two channels are provided in parallel. However, this is merely an example, and, of course, the microchip may have a single channel, or may be in a different mode.
Reservoirs (blood storage containers) 106 and 116 are connected in an inverted position to a first inlet 104 and a second inlet 114, respectively, of the microchip A, and liquid transfer pumps 107, and 117 are connected to the reservoirs 106 and 116. To the liquid transfer pumps 107 and 117, pressure sensors 108 and 118 are connected. […]
As the liquid for the liquid transfer pumps 107 and 117, a liquid having a specific gravity lower than that of blood, such as mineral oil or […] is used. […] By measuring the inflow pressure of the liquid, the inflow pressure of the blood into each channel can be indirectly measured. […]
Thrombus formation by platelets occurs when the blood passes through the reaction sections, and increases in the inflow pressure due to this thrombus formation can be observed. By detecting the patterns of these pressure increases using the pressure sensors, and comparing the detected patterns, blood properties, that is, the platelet thrombus formation capacity, can be evaluated. […]

Test [4] concerns blood coagulation. Briefly: ROTEM measurement, BD sodium citrate tube, calcium chloride, CTI, aprotinin, heparin sodium and prothrombin reagent (tissue factor). To be noted: (1) no hemostatic agent; (2) NovoSeven 2 μg/mL; (3) TFPI 10 μg/mL; HemosIL RecombiPlasTin 0.04%. How it is done: as §1
(1) Calcium chloride (final concentration, 12 mM), CTI (final concentration, 50 μg/mL), aprotinin (final concentration, 20 μg/mL), heparin sodium (final concentration, 0.15 U/mL), and a prothrombin reagent (addition of HemosIL RecombiPlasTin (15 μg/mL) to a final concentration of about 0.04%)
(2) Calcium chloride (final concentration, 12 mM), CTI (final concentration, 50 μg/mL), aprotinin (final concentration, 20 μg/mL), heparin sodium (final concentration, 0.15 U/mL), NovoSeven (final concentration, 2 μg/mL), and a prothrombin reagent (addition of HemosIL RecombiPlasTin to a final concentration of 0.04%) […]

The subject of test [5] is blood coagulation. Briefly: ROTEM measurement with STARTEM and EXTEM reagents (Comparative Example). To be noted: (1) alone, (2) NovoSeven 2 μg/mL, (3) TFPI 10 μg/mL. On the procedure: as §1
(1) STARTEM reagent and EXTEM reagent (trademark; a test reagent containing tissue factor as a major component)
(2) STARTEM reagent, EXTEM reagent, and NovoSeven (Novo Nordisk Pharma Ltd.; final concentration, 2 μg/mL)
(3) STARTEM reagent, EXTEM reagent, and TFPI (final concentration, 10 μg/mL)

In the case of danaparoid sodium, the “blood coagulation (ROTEM)” value in test [1] (danaparoid sodium 0.25 U/mL further added to calcium chloride 12 mM) is “complete suppression of blood coagulation”.

aprotinin: the “thrombogenic capacity in the presence of blood flow” value in test [2] is given as “did not influence the data”. The “initiation of coagulation (ROTEM)” value in test [1] (aprotinin 20 μg/mL together with calcium chloride 12 mM and CTI 50 μg/mL) was “suppressed initiation of blood coagulation”. For heparin, the “pressure increase due to platelet thrombus formation” value in test [3] is reported as “hardly observed”. Turning to heparin sodium, in test [1] (heparin sodium 0.15 U/mL further added to calcium chloride 12 mM), the “blood coagulation (ROTEM)” value is recorded as “complete suppression of blood coagulation”. In the case of Ac-FQSKpNVHVDGYFERLXAKL-NH2 [TFPI], the “order of coagulation (ROTEM)” value in test [4] was “Coagulation occurred in the order of (2), (3), and (1)”. Besides, in test [5], the “ROTEM waveform versus reagent alone” value is “showed the same waveform”.
